Experimental data from US8309599B2, “Synthesis of FR901464 and analogs with antitumor activity” (University of Pittsburgh-Of The Commonwealth System of …, priority 2006, dated 2012).
Where two headings read alike, the source gives them in different places.

What was measured:
A549 = assay type: cell-based; conditions: Homo sapiens; A549, 3 to 5 days
MDA-MB-231 = assay type: cell-based; conditions: Homo sapiens; MDA-MB-231, 3 to 5 days
H1299 = assay type: cell-based; conditions: Homo sapiens, NCI-H1299; H1299, 3 to 5 days
HeLa = assay type: cell-based; conditions: Homo sapiens, 3 to 5 days
MCF-7 [1] = test: cells; conditions: Homo sapiens, MCF7
DU145 = assay type: cell-based; conditions: Homo sapiens, DU-145; DU145, 3 to 5 days
HCT116 = assay type: cell-based; conditions: Homo sapiens, HCT-116; HCT116, 3 to 5 days
PC-3 = assay type: cell-based; conditions: Homo sapiens; PC-3, 3 to 5 days
HeLa cells [2] = test: High-content analysis of mitotic arrest and microtubule perturbation; assay type: cell-based; conditions: HeLa cells treated for 21 h
[3] = tested on: DC3F transformed Chinese hamster cells; test: Antiproliferative activity in parental cells; assay type: cell-based; conditions: for GI50: Cricetulus griseus, DC3F, read-out: average GI50 DC3F; for growth inhibition of parental DC3F cells: in words
MCF-7 cells [4] = conditions: read-out: LC50 (apparent apoptosis); cited from earlier work
[5] = tested on: mRNA levels of p53, p21, c-myc, and E2F-1; conditions: MCF-7 cells at 20 nM; cited from earlier work
[6] = mouse model; cited from earlier work
MCF-7 cells [7] = test: MCF-7 cell count with hemacytometer and trypan blue; conditions: for viability at 0.01 µM: Homo sapiens; for percent of cells present: 200 nM positive control
Procedure: MCF-7 cells were used in this experiment.
Cell proliferation was measured by manual counting using a hemacytometer by trypsinizing and staining with trypan blue.

MCF-7 [8] = conditions: MCF-7, 5-day assay
A549 cells = test: Reversibility test (drug washout, MTS); assay type: cell-based; conditions: 1 nM, washout at intervals, read at 72 h
Procedure: (§1) One concentration was used in each experiment for all times examined. […] At the desired time intervals, the media containing the drug was removed, the wells were washed 5 times with new media and 200 μL of new media containing 1% DMSO was added.
(§2) All cells were treated at the same time meayamycin at 1 nM concentration. At the given time interval, the drug-containing media was removed and replaced with fresh media. Cell proliferation was measured at the last time interval (72 h).

HeLa cells [9] = test: Reversibility test (drug washout, MTS); assay type: cell-based; conditions: preliminary result
Procedure: as §1, §2

MCF-7 cells [10] = test: Reversibility test (drug washout, MTS); assay type: cell-based; conditions: 1 nM, washout at intervals, read at 72 h
Procedure: as §1, §2

[11] = tested on: multidrug resistant subline VCRd5L; test: Antiproliferative activity in multidrug resistant cells; assay type: cell-based, Chinese hamster; conditions: for GI50: Cricetulus griseus, read-out: average GI50 VCRd5L
A-549 lung cancer cells = test: High-content selectivity study, cancer cells
[12] = tested on: IMR-90 human lung fibroblasts; test: High-content selectivity study, normal cells
[13] = MCF7, 24 h, read-out: Percent Viable Cells, 10 nM, 24 hours
[14] = MCF7, 48 h, read-out: Percent Viable Cells, 10 nM, 48 hours

SMILES: CC(/C=C/[C@H]1OC(C)(C)C[C@@]2(CO2)[C@@H]1O)=C\C[C@@H]1O[C@H](C)[C@H](NC(=O)/C=C\[C@H](C)O)C[C@@H]1C [4′-desacetyl meayamycin]
- GI50 (A549): 0.74 nM
- GI50 (MDA-MB-231): 0.35 nM
- GI50 (H1299): 1 nM
- GI50 (HeLa): 1 nM
- GI50 (MCF-7 [1]): 0.48 nM

SMILES: CC(=O)O[C@@H](C)/C=C\C(=O)N[C@@H]1CC[C@H](C/C=C(C)/C=C/[C@H]2OC(C)(C)C[C@@]3(CO3)[C@@H]2O)O[C@@H]1C [12-desmethyl meayamycin]
- GI50 (A549): 1 nM
- GI50 (DU145): 3.5 nM
- GI50 (HCT116): 2.2 nM
- GI50 (MDA-MB-231): 0.7 nM
- GI50 (H1299): 2.8 nM
- GI50 (PC-3): 1.6 nM
- GI50 (MCF-7 [1]): 0.3 nM

SMILES: CC(=O)O[C@@H](C)/C=C\C(=O)N[C@@H]1C[C@H](C)[C@H](C/C=C(C)/C=C/[C@H]2O[C@](C)(O)C[C@@]3(CO3)[C@@H]2O)O[C@@H]1C [FR901464]
- mitotic arrest (HeLa cells [2]): neither FR 901464 nor meayamycin were mitotic arresters
- GI50 [3]: 7.49 ± 1.26 nM
- growth inhibition of parental DC3F cells [3]: potently inhibited the growth
- CC50 (MCF-7 cells [4]): 0.5 nM
- mRNA levels of p53, p21, c-myc, and E2F-1 [5]: lowers the mRNA levels
- antitumor activity, active dose [6]: 0.056 to 0.18 mg/kg
- viability at 0.01 µM (MCF-7 cells [7]; [13]): 81%
- viability at 0.01 µM (MCF-7 cells [7]; [14]): 49%

SMILES: CC(=O)O[C@@H](C)/C=C\C(=O)N[C@@H]1CO[C@H](C/C=C(C)/C=C/[C@H]2OC(C)(C)C[C@@]3(CO3)[C@@H]2O)O[C@@H]1C [acetal meayamycin]
- GI50 (MCF-7 [1]): 2.5 nM

SMILES: CC(/C=C/[C@H]1OC(C)(C)C[C@@]2(CO2)[C@@H]1O)=C\C[C@@H]1O[C@H](C)[C@H](NC(=O)/C=C\[C@H](C)OC(=O)N2CCOCC2)C[C@@H]1C [meayamycin B, (2Z,4S)-4-[(morpholinylcarbonyl)oxy]-N-[(2R,3R,5S,6S)-tetrahydro-6-[(2E,4E)-5-[(3R,4R,5R)-4-hydroxy-7,7-dimethyl-1,6-dioxaspiro[2.5]oct-5-yl]-3-methyl-2,4-pentadien-1-yl]-2,5-dimethyl-2H-pyran-3-yl]-2-pentenamide]
- times more potent than meayamycin in cultured cells (MCF-7 [8]): 2 times

SMILES: CC(=O)O[C@@H](C)/C=C\C(=O)N[C@@H]1C[C@H](C)[C@H](C/C=C(C)/C=C/[C@H]2OC(C)(C)C[C@@]3(CO3)[C@@H]2O)O[C@@H]1C [meayamycin]
- GI50 (A549): 0.11 nM
- GI50 (DU145): 0.47 nM
- GI50 (HCT116): 0.044 nM
- GI50 (MDA-MB-231): 0.024 nM
- GI50 (H1299): 0.091 nM
- GI50 (PC-3): 0.058 nM
- GI50 (HeLa): 0.24 nM
- reversibility of growth inhibition (A549 cells): irreversibly inhibits the growth
- reversibility of growth inhibition (HeLa cells [9]): reversibly inhibits the growth
- reversibility of growth inhibition (MCF-7 cells [10]): irreversibly inhibits the growth
- mitotic arrest (HeLa cells [2]): neither FR 901464 nor meayamycin were mitotic arresters
- GI50 [3]: 0.46 ± 0.09 nM
- growth inhibition of parental DC3F cells [3]: active in the subnanomolar range
- activity in the multidrug resistant cells [11]: retained picomolar activity
- fold resistance [11]: 1.5 fold
- GI50 [11]: 0.71 ± 0.27 nM
- GI50 (MCF-7 [1]): 0.01 nM
- cell loss (A-549 lung cancer cells; 10 nM, 24 hours, compared with normal cells): more pronounced cell loss
- nuclear morphology (A-549 lung cancer cells; 24 h): did not cause nuclear fragmentation but instead enlarged nuclei
- p53 induction (A-549 lung cancer cells; 24 h): p53 induction
- caspase cleavage (A-549 lung cancer cells; 24 h, some experiments): low level of caspase cleavage
- growth inhibition of A549 cells (A-549 lung cancer cells; FIG. 4): inhibits the growth of A549 cells
- p53 induction ([12]; 24 h): magnitude of response was smaller
- growth inhibition of normal lung cells (IMR-90) ([12]; FIG. 5): only mildly
- Percent Viable Cells (MCF-7 cells [7]; 10 nM, 48 hours, listed as Compound IX, 0.01 µM): 26%
- viability at 0.01 µM (MCF-7 cells [7]; [13]): 46%
- viability at 0.01 µM (MCF-7 cells [7]; [14]): 27%

SMILES: CC(=O)O[C@H]1C(=O)[C@@]2(C)[C@H]([C@H](OC(=O)c3ccccc3)[C@]3(O)C[C@H](OC(=O)[C@H](O)[C@@H](NC(=O)c4ccccc4)c4ccccc4)C(C)=C1C3(C)C)[C@]1(OC(C)=O)CO[C@@H]1C[C@@H]2O [paclitaxel]
- mitotic arrest (HeLa cells [2]): caused mitotic arrest
- GI50 ([3]; average ± SD (n)): 45.4 ± 11.3 nM
- fold resistant (VCRd-5L cells) [11]: 60 fold
- GI50 ([11]; average ± SD (n)): 2680 ± 109 nM
- percent of cells present (MCF-7 cells [7]; 24 hour): 70%
- percent of cells present (MCF-7 cells [7]; 48 hour): 52%

SMILES: CC[C@]1(O)C[C@H]2CN(CCc3c([nH]c4ccccc34)[C@@](C(=O)OC)(c3cc4c(cc3OC)N(C=O)[C@H]3[C@@](O)(C(=O)OC)[C@H](OC(C)=O)[C@]5(CC)C=CCN6CC[C@]43[C@@H]65)C2)C1 [vincristine]
- mitotic arrest (HeLa cells [2]): caused mitotic arrest
- GI50 ([3]; average ± SD (n)): 18.8 ± 16.2 nM
- fold resistant (VCRd-5L cells) [11]: > 250 fold
- GI50 ([11]; average ± SD (n)): > 5000 nM
